Series [1] has as its system Trypanosoma brucei rhodesiense. Briefly: Antitrypanosomal activity against bloodstream form of Trypanosoma brucei rhodesiense STIB 900 by Alamar Blue assay. The format is functional, organism-based. (In general: Alamar Blue is a resazurin reagent that responds to reducing activity.)
Series [2] can be described thus: Selectivity index, ratio of IC50 for rat L6 cells to IC50 for bloodstream form of Trypanosoma brucei rhodesiense STIB 900. The format is toxicity, cell-based. The note with it: read-out: Ratio IC50.
The next series has as its system L6. Briefly: Cytotoxicity against rat L6 cells by Alamar Blue assay. The format is cell-based.

pIC50: −log10 of the molar value.

Consider `C[C@H]1[C@H](C)CC(=O)O[C@]2(C)CC[C@]3(C)C(=C[C@@H](O)[C@@H]4[C@@]5(C)[C@H](O)CC(=O)C(C)(C)[C@@H]5CC[C@]43C)[C@H]12`, for which the pIC50 (as a rule, the IC50 on a negative log10 scale, so that one unit is a factor of ten) was 5.25 in series [1] and less than 3.73 in the series with L6. Besides, the selectivity ratio in series [2] is 33.1.

The values above are taken from ChEMBL document CHEMBL2417546, “Antitrypanosomal triterpenoid with an ε-lactone E-ring from Salvia urmiensis” (J Nat Prod, 2013).
